# Columns and labels:
# Acetylcholinesterase [1] = target: Acetylcholinesterase (Homo sapiens, UniProt P22303)
# Description: Inhibition of Acetylcholinesterase in human red blood cell
# Acetylcholinesterase [2] = target: T1, Acetylcholinesterase (Mus musculus, UniProt P21836)
# T1 sequence (P21836 whole entry): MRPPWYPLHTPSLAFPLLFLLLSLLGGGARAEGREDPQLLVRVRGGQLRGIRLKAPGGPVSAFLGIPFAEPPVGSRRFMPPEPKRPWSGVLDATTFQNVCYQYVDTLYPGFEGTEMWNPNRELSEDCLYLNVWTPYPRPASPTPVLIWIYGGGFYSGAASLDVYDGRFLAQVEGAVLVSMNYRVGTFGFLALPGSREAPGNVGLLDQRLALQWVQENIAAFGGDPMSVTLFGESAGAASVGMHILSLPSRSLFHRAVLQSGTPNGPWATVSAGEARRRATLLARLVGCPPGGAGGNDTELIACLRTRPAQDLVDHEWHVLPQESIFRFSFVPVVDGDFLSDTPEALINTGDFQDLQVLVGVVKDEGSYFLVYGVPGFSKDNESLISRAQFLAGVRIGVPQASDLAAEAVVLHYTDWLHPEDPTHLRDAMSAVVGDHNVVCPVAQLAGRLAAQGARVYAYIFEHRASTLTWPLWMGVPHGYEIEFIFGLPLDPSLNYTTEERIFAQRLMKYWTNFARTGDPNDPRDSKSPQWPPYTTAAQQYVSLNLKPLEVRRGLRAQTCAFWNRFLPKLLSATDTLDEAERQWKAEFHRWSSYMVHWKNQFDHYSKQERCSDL
# Description: Inhibition of Acetylcholinesterase in mouse red blood cell
# Acetylcholinesterase [3] = target: T2, Acetylcholinesterase (Rattus norvegicus, UniProt P37136)
# T2 sequence (P37136 whole entry): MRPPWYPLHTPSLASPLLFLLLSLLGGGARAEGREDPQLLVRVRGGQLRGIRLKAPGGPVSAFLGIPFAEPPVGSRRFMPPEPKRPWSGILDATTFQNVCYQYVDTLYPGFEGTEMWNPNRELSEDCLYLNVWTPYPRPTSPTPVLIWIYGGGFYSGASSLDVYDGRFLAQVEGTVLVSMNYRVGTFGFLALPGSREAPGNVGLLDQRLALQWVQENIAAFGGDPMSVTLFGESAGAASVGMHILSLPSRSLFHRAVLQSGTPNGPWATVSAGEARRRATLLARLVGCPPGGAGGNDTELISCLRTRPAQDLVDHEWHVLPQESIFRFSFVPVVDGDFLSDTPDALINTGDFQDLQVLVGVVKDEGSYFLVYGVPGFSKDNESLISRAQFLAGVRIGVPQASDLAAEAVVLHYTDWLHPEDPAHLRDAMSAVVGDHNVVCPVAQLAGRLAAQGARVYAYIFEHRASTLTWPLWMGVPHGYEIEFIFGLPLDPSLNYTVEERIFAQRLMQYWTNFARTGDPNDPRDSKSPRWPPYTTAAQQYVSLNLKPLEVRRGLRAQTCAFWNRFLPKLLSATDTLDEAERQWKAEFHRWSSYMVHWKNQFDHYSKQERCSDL
# Description: Inhibition of Acetylcholinesterase in rat red blood cell
# Acetylcholinesterase (Homo sapiens, UniProt P22303), sequence (P22303 whole entry): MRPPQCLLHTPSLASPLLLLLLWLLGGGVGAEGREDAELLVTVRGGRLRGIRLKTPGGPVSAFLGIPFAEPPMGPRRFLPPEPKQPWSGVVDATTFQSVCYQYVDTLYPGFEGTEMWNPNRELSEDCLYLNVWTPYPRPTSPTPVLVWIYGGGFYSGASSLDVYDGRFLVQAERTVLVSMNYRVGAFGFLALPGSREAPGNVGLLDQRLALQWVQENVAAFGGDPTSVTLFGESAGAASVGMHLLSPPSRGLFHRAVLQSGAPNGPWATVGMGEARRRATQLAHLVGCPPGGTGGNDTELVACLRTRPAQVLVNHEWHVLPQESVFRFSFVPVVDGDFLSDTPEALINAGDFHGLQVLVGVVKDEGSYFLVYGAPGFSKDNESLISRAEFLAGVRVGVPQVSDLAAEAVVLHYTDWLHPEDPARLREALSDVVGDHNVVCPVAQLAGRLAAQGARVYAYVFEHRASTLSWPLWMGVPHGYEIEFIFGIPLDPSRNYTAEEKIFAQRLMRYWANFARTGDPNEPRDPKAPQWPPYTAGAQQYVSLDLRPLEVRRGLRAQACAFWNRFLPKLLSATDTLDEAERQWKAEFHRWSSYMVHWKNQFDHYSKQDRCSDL
SMILES,IC50 (Acetylcholinesterase [1]),IC50 (Acetylcholinesterase [2]),IC50 (Acetylcholinesterase [3])
Nc1c2c(nc3ccccc13)CCC(O)C2 (stereo not given),1610 nM,4820 nM,1770 nM
Nc1c2c(nc3ccccc13)C(O)CCC2 (stereo not given),521 nM,1430 nM,411 nM
Nc1c2c(nc3ccccc13)CC(O)CC2 (stereo not given) [7-HYDROXYTACRINE],623 nM,1210 nM,483 nM
Nc1c2c(nc3ccccc13)CCCC2O (stereo not given) [VELNACRINE],–,–,361 nM
